What was measured:
[1] = biological target: T1, human DGAT1 (Homo sapiens, UniProt O75907); test: Inhibition of DGAT1 activity, FlashPlate assay with DGAT1 membrane preparations and substrate micelles; assay type: biochemical; conditions: pIC50 = -logIC50, IC50 values expressed in M
T1 construct: FLAG (N); made in house; host or cells: SF9 insect cells (pFastBac baculovirus); total cell membranes
T1 sequence (O75907 1-488): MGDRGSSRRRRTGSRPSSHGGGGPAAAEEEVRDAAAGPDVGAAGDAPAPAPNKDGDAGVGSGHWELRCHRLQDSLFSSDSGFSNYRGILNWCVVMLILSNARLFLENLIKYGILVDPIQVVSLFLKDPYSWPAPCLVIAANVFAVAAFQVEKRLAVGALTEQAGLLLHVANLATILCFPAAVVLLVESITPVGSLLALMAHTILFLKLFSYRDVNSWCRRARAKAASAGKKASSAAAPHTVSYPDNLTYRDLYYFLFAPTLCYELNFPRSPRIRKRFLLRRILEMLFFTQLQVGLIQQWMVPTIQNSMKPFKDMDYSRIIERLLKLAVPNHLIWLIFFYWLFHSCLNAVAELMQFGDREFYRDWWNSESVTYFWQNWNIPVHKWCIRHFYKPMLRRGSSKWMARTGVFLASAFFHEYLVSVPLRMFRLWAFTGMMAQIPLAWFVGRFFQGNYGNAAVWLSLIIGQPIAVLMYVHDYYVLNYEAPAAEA
Outline: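 FLAG-tagged human DGAT1 membranes (expressed in Sf9 cells) were incubated 120 min at 37° C. in 50 mM Tris-HCl pH 7.4 with 150 mM MgCl2, 1 mM EDTA, 0.2% BSA, 50 μM DAG micelles (PC/PS) and 8.4 μM [^3H]-oleoylCoA. The reaction was stopped with N-ethylmaleimide and read as FlashPlate radioluminescence. Responses were normalized to enzyme/no-enzyme controls to fit dose-response curves.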

Q: For `O=C(CC1CCCCC1)Nc1ccc(N2CCN(C(=O)Nc3c(Cl)cccc3Cl)CC2)cc1` [Compound 1], which IC50 [1] is on record?
A: The IC50 was 4.47 nM.

Q: What about the melting point of the same compound?
A: Its melting point is 285.3 °C.

Q: With `O=C(CCOc1ccccc1)Nc1ccc(N2CCN(C(=O)Nc3c(Cl)cccc3Cl)CC2)cc1` [Compound 3] as the compound, how does the IC50 [1] read?
A: Its IC50 is 7.59 nM.

Q: And the melting point?
A: The melting point was 268.2 °C.

Q: Which IC50 [1] does the source give for `O=C(CNc1ccccc1Cl)Nc1ccc(N2CCN(C(=O)Nc3c(Cl)cccc3Cl)CC2)cc1` [Compound 4] here?
A: The IC50 was 2.69 nM.

Q: And the melting point?
A: The melting point was 247 to 249 °C.

Q: For `CC(C)(C)OC(=O)NC1(C(=O)Nc2ccc(N3CCN(C(=O)Nc4c(Cl)cccc4Cl)CC3)cc2)CCCC1` [Compound 5], which IC50 [1] is on record?
A: Its IC50 is 151 nM.

Q: And the melting point?
A: Its melting point is 242.6 °C.

Q: With `C=CCN(CCC(=O)Nc1ccc(N2CCN(C(=O)Nc3c(Cl)cccc3Cl)CC2)cc1)c1ccccc1Cl` [Compound 7] as the compound, how does the IC50 [1] read?
A: Its IC50 is 8.51 nM.

Q: What about the melting point of the same compound?
A: The melting point was 232 to 233 °C.

Q: For `CCCCCCC(=O)Nc1ccc(N2CCN(C(=O)Nc3c(Cl)cccc3Cl)CC2)cc1` [Compound 8], which IC50 [1] is on record?
A: Its IC50 is 8.91 nM.

Q: What about the melting point of the same compound?
A: Its melting point is 245.1 °C.

Q: Which results are given for `O=C(CCc1ccccn1)Nc1ccc(N2CCN(C(=O)Nc3c(Cl)cccc3Cl)CC2)cc1` [Compound 9]?
A: IC50 [1]: 550 nM; melting point: 187 to 188 °C

Q: For `Cc1cc(C)c(NC(=O)N2CCN(c3ccc(NC(=O)CCCc4ccccc4)cc3)CC2)c(Br)c1` [Compound 11], which IC50 [1] is on record?
A: The IC50 was 6.17 nM.

Q: And the melting point?
A: The melting point was 238.7 °C.

Q: For `O=C(CCCc1ccccc1)Nc1ccc(N2CCN(C(=O)Nc3c(Cl)ccc4c3CCO4)CC2)cc1` [Compound 12], which IC50 [1] is on record?
A: The IC50 was 182 nM.

Q: What about the melting point of the same compound?
A: Its melting point is 209.8 °C.

Q: With `CC(C)NC(=O)N(C)CC(=O)Nc1ccc(N2CCN(C(=O)Nc3c(Cl)cccc3Cl)CC2)cc1` [Compound 14] as the compound, how does the IC50 [1] read?
A: Its IC50 is 316 nM.

Q: And the melting point?
A: The melting point was 217 to 219 °C.

Q: Which IC50 [1] does the source give for `COc1ccc(CC(=O)Nc2ccc(N3CCN(C(=O)Nc4c(Cl)cc(O)cc4Cl)CC3)cc2)cc1` [Compound 16] here?
A: Its IC50 is 4.68 nM.

Q: What about the melting point of the same compound?
A: The melting point was 183 to 184 °C.

Q: What does the source list for `O=C(CCCc1ccccc1)Nc1ccc(N2CCN(/C=C/C(=O)c3c(Cl)cccc3Cl)CC2)cc1` [Compound 18]?
A: IC50 [1]: 120 nM; melting point: 178.2 °C

Q: What does the source list for `O=C(CCCc1ccccc1)Nc1ccc(N2CCN(C(=O)C(O)c3ccccc3Cl)CC2)cc1` (centres unmarked) [Compound 19]?
A: IC50 [1]: 30.9 nM; melting point: 142.3 °C

Q: What does the source list for `O=C(CNc1ccccc1)Nc1ccc(N2CCN(C(=O)Nc3c(Cl)cccc3Cl)CC2)cc1` [Compound 21]?
A: IC50 [1]: 72.4 nM; melting point: 244 to 246 °C

Q: Which IC50 [1] does the source give for `Cc1ccc(NCC(=O)Nc2ccc(N3CCN(C(=O)Nc4c(Cl)cccc4Cl)CC3)cc2)c(C)c1` [Compound 22] here?
A: The IC50 was 14.8 nM.

Q: What about the melting point of the same compound?
A: Its melting point is 248 to 249 °C.

Q: Which IC50 [1] does the source give for `CS(=O)(=O)N1CCN(CC(=O)Nc2ccc(N3CCN(C(=O)Nc4c(Cl)cccc4Cl)CC3)cc2)CC1` [Compound 26] here?
A: The IC50 was 692 nM.

Q: What about the melting point of the same compound?
A: The melting point was 232 to 234 °C.

Q: What does the source list for `O=C(CCCc1ccccc1)Nc1ccc(N2CCN(C(=O)Nc3c(Cl)cc(CO)cc3Cl)CC2)cc1` [Compound 28]?
A: IC50 [1]: 1.95 nM; melting point: 196.1 °C

Q: For `CC(O)c1cc(Cl)c(NC(=O)N2CCN(c3ccc(NC(=O)CCCc4ccccc4)cc3)CC2)c(Cl)c1` (centres unmarked) [Compound 29], which IC50 [1] is on record?
A: The IC50 was 3.98 nM.

Q: What about the melting point of the same compound?
A: Its melting point is 187.3 °C.

Q: With `COc1cc(Cl)c(NC(=O)N2CCN(c3ccc(NC(=O)CNc4ccc(C)cc4C)cc3)CC2)c(Cl)c1` [Compound 31] as the compound, how does the IC50 [1] read?
A: Its IC50 is 4.47 nM.

Q: What about the melting point of the same compound?
A: Its melting point is 175 to 176 °C.

Q: For `COc1ccc(CNCCC(=O)Nc2ccc(N3CCN(C(=O)Nc4c(Cl)cccc4Cl)CC3)cc2)cc1` [Compound 32], which IC50 [1] is on record?
A: The IC50 was 347 nM.

Q: And the melting point?
A: Its melting point is 188 to 189 °C.

Q: What does the source list for `O=C(CCCc1ccccc1)Nc1ccc(N2CCN(C(=O)Nc3ccccc3Cl)CC2)cc1` [Compound 34]?
A: IC50 [1]: 145 nM; melting point: 142.1 °C

Q: Which IC50 [1] does the source give for `O=C(CNCc1ccc(F)cc1)Nc1ccc(N2CCN(C(=O)Nc3c(Cl)cccc3Cl)CC2)cc1` [Compound 35] here?
A: The IC50 was 240 nM.

Q: What about the melting point of the same compound?
A: Its melting point is 169.9 °C.

Q: For `O=C(CNc1ccc(F)cc1)Nc1ccc(N2CCN(C(=O)Nc3c(Cl)cccc3Cl)CC2)cc1` [Compound 36], which IC50 [1] is on record?
A: Its IC50 is 87.1 nM.

Q: And the melting point?
A: The melting point was 254.2 °C.

Q: Which IC50 [1] does the source give for `CC1CN(CC(=O)Nc2ccc(N3CCN(C(=O)Nc4c(Cl)cccc4Cl)CC3)cc2)CC(C)O1` (centres unmarked) [Compound 37] here?
A: Its IC50 is 129 nM.

Q: What about the melting point of the same compound?
A: Its melting point is 237.1 °C.

Q: With `Cc1cc(C)cc(N2CCN(CC(=O)Nc3ccc(N4CCN(C(=O)Nc5c(Cl)cccc5Cl)CC4)cc3)CC2)c1` [Compound 41] as the compound, how does the IC50 [1] read?
A: Its IC50 is 77.6 nM.

Q: What about the melting point of the same compound?
A: The melting point was 186.1 °C.

Q: What does the source list for `CN(C(=O)CCCc1ccccc1)c1ccc(N2CCN(C(=O)Nc3c(Cl)cccc3Cl)CC2)cc1` [Compound 42]?
A: IC50 [1]: 6920 nM; melting point: 175.2 °C

Q: With `COCCOCC(=O)Nc1ccc(N2CCN(C(=O)Nc3c(Cl)cccc3Cl)CC2)cc1` [Compound 45] as the compound, how does the IC50 [1] read?
A: Its IC50 is 2340 nM.

Q: What about the melting point of the same compound?
A: Its melting point is 178.7 °C.

Q: For `O=C(CCCc1ccccc1)Nc1ccc(N2CCN(C(=O)Nc3c(Cl)cc(Br)c4c3CCO4)CC2)cc1` [Compound 46], which IC50 [1] is on record?
A: The IC50 was 331 nM.

Q: And the melting point?
A: The melting point was 223 °C.

Q: With `O=C(Nc1ccc(N2CCN(C(=O)Nc3c(Cl)cccc3Cl)CC2)cc1)C(O)CCc1ccccc1` (centres unmarked) [Compound 48] as the compound, how does the IC50 [1] read?
A: The IC50 was 148 nM.

Q: What about the melting point of the same compound?
A: Its melting point is 253.4 °C.

Q: With `O=C(CCCc1ccccc1)Nc1ccc(N2CCN(C(=O)Nc3c(F)cc(Br)cc3F)CC2)cc1` [Compound 49] as the compound, how does the IC50 [1] read?
A: Its IC50 is 120 nM.

Q: What about the melting point of the same compound?
A: The melting point was 207.9 °C.

Q: Which results are given for `CCOC(=O)CC(=O)Nc1ccc(N2CCN(C(=O)Nc3c(Cl)cccc3Cl)CC2)cc1` [Compound 50]?
A: IC50 [1]: 95.5 nM; melting point: 219.9 °C

Q: With `C=CCN(CC(=O)Nc1ccc(N2CCN(C(=O)Nc3c(Cl)cccc3Cl)CC2)cc1)Cc1ccc(F)cc1` [Compound 51] as the compound, how does the IC50 [1] read?
A: Its IC50 is 18.2 nM.

Q: And the melting point?
A: Its melting point is 177.8 °C.

Q: What does the source list for `CC(NCCCN(C)C)c1cc(Cl)c(NC(=O)N2CCN(c3ccc(NC(=O)CCCc4ccccc4)cc3)CC2)c(Cl)c1` (centres unmarked) [Compound 54]?
A: IC50 [1]: 23.4 nM; melting point: 125.4 °C

Q: Which results are given for `CC(c1cc(Cl)c(NC(=O)N2CCN(c3ccc(NC(=O)CCCc4ccccc4)cc3)CC2)c(Cl)c1)N1CCCCC1` (centres unmarked) [Compound 56]?
A: IC50 [1]: 16.2 nM; melting point: 218 °C

Q: For `O=C(CCCc1ccccc1)Nc1ccc(N2CCN(C(=O)Nc3c(Cl)cccc3Cl)CC2)cc1` [Compound 58], which IC50 [1] is on record?
A: Its IC50 is 5.37 nM.

Q: What about the melting point of the same compound?
A: Its melting point is 114 to 124 °C.

Q: With `O=C(CCCc1ccccc1)Nc1ccc(N2CCN(C(=O)Nc3c(Cl)cc(Cl)cc3Cl)CC2)cc1` [Compound 59] as the compound, how does the IC50 [1] read?
A: Its IC50 is 12.9 nM.

Q: What about the melting point of the same compound?
A: The melting point was 234.9 °C.

Q: Which IC50 [1] does the source give for `O=C(CCCc1ccccc1)Nc1ccc(N2CCN(C(=O)C(O)c3ccc(F)c(F)c3)CC2)cc1` (centres unmarked) [Compound 341] here?
A: Its IC50 is 3720 nM.

Q: For `COc1ccc(CC(=O)Nc2ccc(N3CCN(C(=O)C4(c5c(Cl)cccc5Cl)CC4)CC3)cc2)cc1` [Compound 342], which IC50 [1] is on record?
A: Its IC50 is 3980 nM.

Q: With `O=C(CCCc1ccccc1)Nc1ccc(N2CCN(C(=O)C(O)c3ccc(F)cc3)CC2)cc1` (centres unmarked) [Compound 344] as the compound, how does the IC50 [1] read?
A: Its IC50 is 4070 nM.

Q: Which IC50 [1] does the source give for `CC(C(=O)N1CCN(c2ccc(NC(=O)CCCc3ccccc3)cc2)CC1)c1ccc(O)cc1` (centres unmarked) [Compound 347] here?
A: Its IC50 is 5010 nM.

Q: Which IC50 [1] does the source give for `COc1cc(C(O)C(=O)N2CCN(c3ccc(NC(=O)CCCc4ccccc4)cc3)CC2)ccc1O` (centres unmarked) [Compound 348] here?
A: The IC50 was 5250 nM.

Q: For `O=C(CCCc1ccccc1)Nc1ccc(N2CCN(C(=O)C(O)c3ccc(Br)cc3)CC2)cc1` (centres unmarked) [Compound 349], which IC50 [1] is on record?
A: Its IC50 is 6030 nM.

Q: With `COc1ccc(CC(=O)Nc2ccc(N3CCN(C(=O)Cc4c(Cl)cc(CN5CCCC5)cc4Cl)CC3)cc2)cc1` [Compound 351] as the compound, how does the IC50 [1] read?
A: Its IC50 is 245 nM.

Q: For `COc1ccc(CC(=O)Nc2ccc(N3CCN(C(=O)C(O)c4ccc(CN5CCCC5)cc4Cl)CC3)cc2)cc1` (centres unmarked) [Compound 352], which IC50 [1] is on record?
A: The IC50 was 339 nM.
